Assays:
Assay type in all cases: functional
Echinochloa crus-galli [1] = assay: Herbicidal activity against Echinochloa crus-galli (barnyard grass) assessed as inhibition of plant growth at 10 ug/mL by cup test
Digitaria sanguinalis [2] = assay: Herbicidal activity against Digitaria sanguinalis (hairy crabgrass) assessed as inhibition of plant growth at 375 g/ha applied as pre-emergence treatment
Digitaria sanguinalis [3] = assay: Herbicidal activity against Digitaria sanguinalis (hairy crabgrass) assessed as inhibition of plant growth at 750 g/ha applied as pre-emergence treatment
Echinochloa crus-galli [4] = assay: Herbicidal activity against Echinochloa crus-galli (barnyard grass) assessed as inhibition of plant growth at 93.75 g/ha applied as pre-emergence treatment
Echinochloa crus-galli [5] = assay: Herbicidal activity against Echinochloa crus-galli (barnyard grass) assessed as inhibition of plant growth at 187.5 g/ha applied as pre-emergence treatment
Echinochloa crus-galli [6] = assay: Herbicidal activity against Echinochloa crus-galli (barnyard grass) assessed as inhibition of plant growth at 750 g/ha applied as pre-emergence treatment
Echinochloa crus-galli [7] = assay: Herbicidal activity against Echinochloa crus-galli (barnyard grass) assessed as inhibition of plant growth at 375 g/ha applied as pre-emergence treatment
Digitaria sanguinalis [8] = assay: Herbicidal activity against Digitaria sanguinalis (hairy crabgrass) assessed as inhibition of plant growth at 187.5 g/ha applied as pre-emergence treatment
Digitaria sanguinalis [9] = assay: Herbicidal activity against Digitaria sanguinalis (hairy crabgrass) assessed as inhibition of plant growth at 93.75 g/ha applied as pre-emergence treatment

For `COc1ccc(/C(O)=C2\C(=O)CN(C(C)C)C2=O)c(OC)c1`, the inhibition at 10 µg/mL (Echinochloa crus-galli [1]) was 78%, the “inhibition (INH)” value (Digitaria sanguinalis [2]) was 95% and the “inhibition (INH)” value (Digitaria sanguinalis [3]) was 95%. The “inhibition (INH)” value (Echinochloa crus-galli [4]) was 10%, the “inhibition (INH)” value (Echinochloa crus-galli [5]) was 56% and the “inhibition (INH)” value (Echinochloa crus-galli [6]) was 99%. For the same molecule, the “inhibition (INH)” value (Echinochloa crus-galli [7]) was 94%, the “inhibition (INH)” value (Digitaria sanguinalis [8]) was 84% and the “inhibition (INH)” value (Digitaria sanguinalis [9]) was 20%.

— ChEMBL document CHEMBL3045542, “A quantitative structure-activity relationship study of herbicidal analogues of alpha-hydroxy-substituted 3-benzylidenepyrrolidene-2,4-diones” (2006)
